{
  "source": "patent US20140017223A1",
  "about": "“Pharmaceutical Compositions Comprising A Pancreatic Enzyme Preparation With Viral Infectivity Reduced Below A Significant Level And Methods Of Preparing And Using The Same” (Aptalis Pharma Canada Inc., priority 2010, published 2014)",
  "test_system": "EMCV",
  "test": "Inactivation of spiked EMCV in pancrelipase by BPL, TCID50 titration on VERO cells (Example 2)",
  "assay_type": "cell-based, porcine encephalomyocarditis virus (EMCV)",
  "details": "48 h, 20° C.; for Detected EMCV titer: 0*=below detection limit of 10^3 TCID50/g",
  "method": "Four different lots of pancrelipase powders were dissolved in 100 mM Tris, pH=8.3, at a concentration of 100 mg/ml. EMCV virus stock (prepared by Meng X J, Paul P S, Vaughn E M, Zimmerman J J. Development of a radiolabeled nucleic acid probe for the detection of encephalomyocarditis virus of swine. J Vet Diagn Invest. 1993 5:254-8) was mixed with the pancrelipase using slow shaking at room temperature for one day such that the final concentration of pancrelipase was 100 mg/ml. Aliquots were taken from the EMCV-spiked pancrelipase stocks and each was incubated with different concentrations of BPL (available from Sigma-Aldrich, St. Louis, Mo.) (except the control) for 48 hours at room temperature (20° C.). The level of inactivation was measured by the titration of EMCV infectivity on VERO cells using serial dilutions and determining the TCID50 as described in Hierholzer, J. C., Killington, R. A., 1996. Virus isolation and quantitation. In: Mahy, B. W. J., Kangro, H. O. (Eds.), Virology methods manual. Academic Press, London, pp. 25-46.",
  "data": [
    {"smiles": "O=C1CCO1", "note": "[BPL, Beta-propiolactone]", "values": [
      {"measurement": "EMCV Titer reduction", "setting": "PEP #1, 0.1% (v/v) BPL", "value": "1.33 × 10^2 TCID50/g"},
      {"measurement": "Detected EMCV titer", "setting": "PEP #1, 0.1% (v/v) BPL", "value": "4.22 × 10^5 TCID50/g"},
      {"measurement": "EMCV Titer reduction", "setting": "PEP #1, 0.2% (v/v) BPL", "value": ">10^5 TCID50/g"},
      {"measurement": "Detected EMCV titer", "setting": "PEP #1, 0.2% (v/v) BPL", "value": "< 0* TCID50/g"},
      {"measurement": "EMCV Titer reduction", "setting": "PEP #1, 0.4% (v/v) BPL", "value": ">10^5 TCID50/g"},
      {"measurement": "Detected EMCV titer", "setting": "PEP #1, 0.4% (v/v) BPL", "value": "< 0* TCID50/g"},
      {"measurement": "EMCV Titer reduction", "setting": "PEP #1, 0.8% (v/v) BPL", "value": ">10^5 TCID50/g"},
      {"measurement": "Detected EMCV titer", "setting": "PEP #1, 0.8% (v/v) BPL", "value": "< 0* TCID50/g"},
      {"measurement": "EMCV Titer reduction", "setting": "PEP #2, 0.1% (v/v) BPL", "value": "1.78 × 10^2 TCID50/g"},
      {"measurement": "Detected EMCV titer", "setting": "PEP #2, 0.1% (v/v) BPL", "value": "3.16 × 10^5 TCID50/g"},
      {"measurement": "EMCV Titer reduction", "setting": "PEP #2, 0.2% (v/v) BPL", "value": ">10^5 TCID50/g"},
      {"measurement": "Detected EMCV titer", "setting": "PEP #2, 0.2% (v/v) BPL", "value": "< 0* TCID50/g"},
      {"measurement": "EMCV Titer reduction", "setting": "PEP #2, 0.4% (v/v) BPL", "value": ">10^5 TCID50/g"},
      {"measurement": "Detected EMCV titer", "setting": "PEP #2, 0.4% (v/v) BPL", "value": "< 0* TCID50/g"},
      {"measurement": "EMCV Titer reduction", "setting": "PEP #2, 0.8% (v/v) BPL", "value": ">10^5 TCID50/g"},
      {"measurement": "Detected EMCV titer", "setting": "PEP #2, 0.8% (v/v) BPL", "value": "< 0* TCID50/g"},
      {"measurement": "EMCV Titer reduction", "setting": "PEP #3, 0.1% (v/v) BPL", "value": ">10^5 TCID50/g"},
      {"measurement": "Detected EMCV titer", "setting": "PEP #3, 0.1% (v/v) BPL", "value": "< 0* TCID50/g"},
      {"measurement": "EMCV Titer reduction", "setting": "PEP #3, 0.2% (v/v) BPL", "value": ">10^5 TCID50/g"},
      {"measurement": "Detected EMCV titer", "setting": "PEP #3, 0.2% (v/v) BPL", "value": "< 0* TCID50/g"},
      {"measurement": "EMCV Titer reduction", "setting": "PEP #3, 0.4% (v/v) BPL", "value": ">10^5 TCID50/g"},
      {"measurement": "Detected EMCV titer", "setting": "PEP #3, 0.4% (v/v) BPL", "value": "< 0* TCID50/g"},
      {"measurement": "EMCV Titer reduction", "setting": "PEP #3, 0.8% (v/v) BPL", "value": ">10^5 TCID50/g"},
      {"measurement": "Detected EMCV titer", "setting": "PEP #3, 0.8% (v/v) BPL", "value": "< 0* TCID50/g"},
      {"measurement": "EMCV Titer reduction", "setting": "PEP #4, 0.1% (v/v) BPL", "value": "1.33 × 10^3 TCID50/g"},
      {"measurement": "Detected EMCV titer", "setting": "PEP #4, 0.1% (v/v) BPL", "value": "7.50 × 10^4 TCID50/g"},
      {"measurement": "EMCV Titer reduction", "setting": "PEP #4, 0.2% (v/v) BPL", "value": ">10^5 TCID50/g"},
      {"measurement": "Detected EMCV titer", "setting": "PEP #4, 0.2% (v/v) BPL", "value": "< 0* TCID50/g"},
      {"measurement": "EMCV Titer reduction", "setting": "PEP #4, 0.4% (v/v) BPL", "value": ">10^5 TCID50/g"},
      {"measurement": "Detected EMCV titer", "setting": "PEP #4, 0.4% (v/v) BPL", "value": "< 0* TCID50/g"},
      {"measurement": "EMCV Titer reduction", "setting": "PEP #4, 0.8% (v/v) BPL", "value": ">10^5 TCID50/g"},
      {"measurement": "Detected EMCV titer", "setting": "PEP #4, 0.8% (v/v) BPL", "value": "< 0* TCID50/g"}
    ]}
  ]
}
